Data on 3 molecules can be found in paper PMC3717276, “Optimization and validation of mitochondria-based functional assay as a useful tool to identify BH3-like molecules selectively targeting anti-apoptotic Bcl-2 proteins” (BMC Biotechnology, 2013).

A word on the IC50: it is the point on the concentration scale where inhibition reaches its midpoint. Usually Ki stands for the equilibrium dissociation constant of an inhibitor or competing ligand from its target.

Ends that are not written are not given here. Some results are limits rather than exact numbers.

In assay [1] the test system is mitochondria isolated from 2LMP cells. Put plainly: Permeabilization of mitochondrial outer membrane (MOMP), Cytochrome C and Smac release by Western blot. It counts as biochemical, human. Particulars: agent alone at indicated concentrations, 100 mM KCl buffer, 37°C, 60 min, Figure 3A. For orientation: Immunoblotting shows a protein as a band on a membrane.
Procedure: Mitochondria were isolated from breast cancer cells. Cells were harvested by centrifugation at 1200 g (Microcentrifuge 5415R from Eppendorf) for 5 min at 4°C and then washed with ice-cold PBS. Cell pellets were resuspended in 400 μl of mitochondria isolation buffer (MIB: pH 7.4; 0.1 mM EDTA, 10 mM Tris–HCl, 250 mM Sucrose) freshly added 1 mM PMSF and Protease Inhibitor Cocktail (Roche). Cell suspensions were then homogenized with 40 strokes in a Dounce Tissue Grinder on ice and centrifuged at 1200 g for 10 min at 4°C. Supernatants were centrifuged at 12000 g for 10 min at 4°C. Pellet enriched in mitochondria was washed three times with MIB, spun down at 12000 g for 10 min at 4°C. […] Protein concentrations were determined using Bradford Protein Assay (Protein Assay Kit II, Cat# 500–0002, Bio-Rad). […]
Supernatant samples and mitochondrial pellet samples were subjected to protein separation by SDS-PAGE. After transfer to Polyvinylidene fluoride (PVDF) membranes, Cytochrome C, Smac proteins and loading control (Cytochrome C Oxidase IV, COX IV) were analyzed using the following primary antibodies: anti-Cytochrome C polyclonal antibody (1:500; #4272; Cell Signaling Techonology), anti-Smac/DIABLO polyclonal antibody (1:500; PC574; Calbiochem), anti-COX IV monoclonal antibody (3E11; 1:1000; #4850; Cell Signaling Techonology). […]
Assay [2] deals with T1, Mcl-1 (Homo sapiens, UniProt Q07820).
T1 construct: encoding amino acid residues of 171–327; 8xHis (pHis-TEV vector) (N); made in house; host or cells: E. coli BL21(DE3)
Put plainly: SPR competitive solution binding assay (immobilized Bim BH3 peptide). As to conditions: read-out: SPR Mcl-1 IC50[nM] ± SD. Here is the method:
The Mcl-1fragment (NM_021960) encoding amino acid residues of 171–327 was cloned into the pHis-TEV vector. Mcl-1 protein with an N-terminal 8×His tag was produced in E. coli BL21(DE3).
(§1) Determination of kon, koff and Kd were calculated by simultaneous non-linear regression using BIAevaluation software (BIAcore Life Sciences).
(§2) IC50 values were determined by Non-linear Least Squares analysis using Graph Pad Prism 5.0 software.

Assay [3] deals with T1, Mcl-1. Kind of assay: FP competitive binding assay (FAM-Bid tracer). Particulars: read-out: FP assay Mcl-1 Ki[nM] ± SD.
Procedure: After 2–3 hours incubation, the polarization values in milipolarization units (mP) were measured at an excitation wavelength of 485 nm and an emission wavelength of 530 nm using the Synergy H1 Hybrid Microplate Reader (BioTek).
Assay [4] has as its target T2, Bcl-xL (Homo sapiens, UniProt Q07817, DEL45-85).
T2 construct: 8xHis (pHis-TEV vector) (N); made in house; host or cells: E. coli BL21(DE3)
Kind of assay: SPR competitive solution binding assay (immobilized Bim BH3 peptide). Particulars: read-out: SPR Bcl-xL IC50[nM] ± SD. The procedure:
Lysis buffer contained 50 mM Tris, pH 7.5, 200 mM NaCl, 0.1% BME and Leupectin/Aprotin, while protein was eluted in buffer containing 20 mM Tris, pH7.5, 150 mM NaCl and 5 mM DTT.
as §1, §2

The target of assay [5] is T2, Bcl-xL. Put plainly: FP competitive binding assay (FAM-Bak tracer). As to conditions: read-out: FP assay Bcl-xL Ki[nM] ± SD.

T2 sequence (Q07817 with tags, fused parts or gaps DEL45-85): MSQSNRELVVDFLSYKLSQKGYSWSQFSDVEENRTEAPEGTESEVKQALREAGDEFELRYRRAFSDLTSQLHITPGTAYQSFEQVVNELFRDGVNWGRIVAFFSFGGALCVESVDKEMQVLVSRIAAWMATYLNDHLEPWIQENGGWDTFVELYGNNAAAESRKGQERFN
T1 sequence (Q07820 171-327): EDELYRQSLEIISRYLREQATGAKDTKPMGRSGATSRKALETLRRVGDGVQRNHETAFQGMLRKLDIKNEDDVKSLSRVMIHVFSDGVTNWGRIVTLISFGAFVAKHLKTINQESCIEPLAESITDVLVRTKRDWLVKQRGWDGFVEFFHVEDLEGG

As to `CN(C)CC[C@H](CSc1ccccc1)Nc1ccc(S(=O)(=O)NC(=O)c2ccc(N3CCN(Cc4ccccc4-c4ccc(Cl)cc4)CC3)cc2)cc1[N+](=O)[O-]` [ABT-737], in assay [1], the “Cytochrome C and Smac release from 2LMP mitochondria” value is “effectively induced Cytochrome C and Smac release”.

`CSCC[C@H](NC(=O)[C@H](CCCNC(=N)N)NC(=O)[C@H](CCCNC(=N)N)NC(=O)[C@H](CC(C)C)NC(=O)[C@H](CCC(=O)O)NC(=O)[C@H](CCCNC(=N)N)NC(=O)CNC(=O)[C@H](Cc1ccc(O)cc1)NC(=O)[C@H](CCCNC(=N)N)NC(=O)[C@H](CCC(N)=O)NC(=O)[C@H](C)NC(=O)[C@H](C)NC(=O)[C@H](Cc1c[nH]c2ccccc12)NC(=O)[C@H](CC(C)C)NC(=O)[C@@H](N)CC(N)=O)C(=O)N[C@@H](CO)C(=O)N[C@@H](CC(=O)O)C(=O)N[C@@H](CCC(=O)O)C(=O)N[C@@H](Cc1ccccc1)C(=O)N[C@H](C(=O)N[C@@H](CC(=O)O)C(=O)N[C@@H](CO)C(=O)N[C@@H](Cc1ccccc1)C(=O)N[C@@H](CCCCN)C(=O)N[C@@H](CCCCN)C(=O)NCC(=O)O)C(C)C` [Bad]: in assay [2], the half-maximal inhibitory concentration (IC50) is greater than 30000 nM. Besides, the inhibition constant (Ki) in assay [3] was greater than 20000 nM.

For PAELEVECATQLRRFGDKLNFRQKLL [Noxa], in assay [4], the IC50 was greater than 30000 nM. In assay [5], the Ki is greater than 10000 nM.
